In the first data set the test system is Rattus norvegicus. In words: Tested for gastric antisecretory activity in the pyloric ligated rat by observing the pH of gastric contents at dose 100 mg/kg orally 1 h prior to the 5-h pyloric ligation period; Inactive. It is filed as organism-based, Stomach. More on the design: dose 100 mg/kg, route oral. The note with it: in vivo, po.
In turn, `Cc1c2c(cn1-c1ccccc1)C(C)(C)CC2(C)C(N)=O` (stereo not drawn) registered a pH of 1.2.

For a further data set, the system named is Rattus norvegicus. The data set can be described thus: Tested for gastric antisecretory activity in the pyloric ligated rat by observing the pH of gastric contents at dose 100 mg/kg orally 1 hr prior to the 5-h pyloric ligation period. In kind it is ADME, organism-based, Stomach. More on the design: dose 100 mg/kg, route oral. The note with it: in vivo, po.
For `CC1(C)CC(C)(C(N)=O)c2cn(-c3ccccc3)c(CO)c21` (stereo not drawn), the pH came to 6.4.
`Cc1c2c(c(C)n1-c1ccccc1)C(C)(C(N)=O)CC2(C)C` (stereo not drawn): the pH is 6.2.
The same measure, in the same setting: then `Cc1c2c(c(C=O)n1-c1ccccc1)C(C)(C)CC2(C)C(N)=O` (stereo not drawn), with 1.5; and `CC1(C)CC(C)(C(N)=O)c2c1c(C=O)n(-c1ccccc1)c2C=O` (stereo not drawn), with 1.2.
The same measure, in the same setting: then `Cc1c2c(c(C=O)n1-c1ccccc1)C(C)(C(N)=O)CC2(C)C` (stereo not drawn), with 1.2; and `Cc1c2c(cn1-c1ccccc1)C(C)(C(N)=O)CC2(C)C` (stereo not drawn), with 2.6; and `Cc1c2c(c(CO)n1-c1ccccc1)C(C)(C(N)=O)CC2(C)C` (stereo not drawn), with 7.
On to `Cc1c2c(c(CO)n1-c1ccccc1)C(C)(C)CC2(C)C(N)=O` (stereo not drawn), for which the pH is recorded as 5.7.
`CC1(C)CC(C)(C(N)=O)c2cn(-c3ccccc3)c(C=O)c21` (stereo not drawn): the pH came out at 1.5.

For a further data set, the system named is Rattus norvegicus. In words: Tested for gastric antisecretory activity in the pyloric ligated rat by observing the pH of gastric contents at dose 100 mg/kg orally 1 hr prior to the 5-h pyloric ligation period; pH < 2 is inactive. In kind it is ADME, organism-based, Stomach. More on the design: dose 100 mg/kg, route oral. The note with it: in vivo, po.
Turning to `CCc1c2c(c(CC)n1-c1ccccc1)C(C)(C(N)=O)CC2(C)C` (stereo not drawn), the pH is 1.1.
`CC1(C)CC(C)(C(N)=O)c2c1c(CO)n(-c1ccccc1)c2CO` (stereo not drawn) came in with a pH of 1.2.
Turning to `CC1(C)CC(C)(C(N)=O)c2cn(-c3ccccc3)cc21` (stereo not drawn), the pH was 1.1.

(Values after ChEMBL document CHEMBL1121499, “Experimental antiulcer drugs.4. 1,3-Disubstituted 2,4,5,6-tetrahydro-4,6,6 -trimethyl-2-phenylcyclopenta[c]pyrrole-4-carboxamides” (J Med Chem, 1980).)
